Where a name gives a salt, the structure may show the parent alone. Read-outs that look alike come from different tables or passages of the source.
Tests used:
[1] = tested on: acutely dissociated and purified rat OPCs; assay: Acute OL differentiation assay (MBP expression/cell, immunofluorescent image quantification); assay type: cell-based
Procedure, shortened: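 This acute differentiation assay used purified rat OPCs from postnatal day 6–7 pups, seeded into PDL/laminin-coated 96-well plates in differentiation medium lacking PDGF and FGF. Compounds were applied in quadruplicate after a 1–2 h preincubation at 37 °C, 10 % CO2, with 0.1 % DMSO negative and 40 ng/ml T3 positive controls in eight wells. After fixation on DIV4, anti-MBP immunofluorescence images yielded MBP expression/cell.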

expanded OPCs = assay: cells; conditions: for viability at 0.1 µM / viability at 1 µM / viability at 10 µM: Rattus norvegicus, 72 h
Procedure, shortened: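 Toxicity screen: compounds added at 0.1, 1 and 10 µM to PDGF-AA-expanded OPCs in 96-well plates, 3-day incubation at 37 °C, 10% CO2, then alamarBlue 1:10 for 4 h with fluorescence readout. Results set screening doses of 10/2, 2/0.4 or 0.4/0.08 µM.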

[2] = Rattus norvegicus, 2 uM test compound, relative to quetiapine, sheet "All OLga data", read-out: OL differentiation, 2 uM (% Quet)
[3] = Rattus norvegicus, 10 uM test compound, relative to quetiapine, sheet "All OLga data", read-out: OL differentiation, 10 uM (% Quet)
[4] = read-out: 0.1 µM (% DMSO), alamarBlue viability, NCC library compound at 0.1 µM, sheet "All Tox data"
[5] = read-out: 1 µM (% DMSO), alamarBlue viability, NCC library compound at 1 µM, sheet "All Tox data"
[6] = read-out: 10 µM (% DMSO), alamarBlue viability, NCC library compound at 10 µM, sheet "All Tox data"
[7] = Rattus norvegicus, test compound at 0.4 uM, MBP expression relative to quetiapine, NCC library screen, sheet "All OLga data", read-out: 0.4 uM (% Quet)
[8] = Rattus norvegicus, test compound at 2 uM, MBP expression relative to quetiapine, NCC library screen, sheet "All OLga data", read-out: 2 uM (% Quet)
[9] = alamarBlue viability of expanded OPCs, compound at 0.1 µM, relative to DMSO control
[10] = alamarBlue viability of expanded OPCs, compound at 1 µM, relative to DMSO control
[11] = alamarBlue viability of expanded OPCs, compound at 10 µM, relative to DMSO control
[12] = Rattus norvegicus, 0.4 uM test compound, relative to quetiapine, sheet "All OLga data", read-out: OL differentiation, 0.4 uM (% Quet)
[13] = read-out: 0.1 µM (% DMSO), alamarBlue viability of expanded OPCs, compound at 0.1 µM, sheet All Tox data
[14] = read-out: 1 µM (% DMSO), alamarBlue viability of expanded OPCs, compound at 1 µM, sheet All Tox data
[15] = read-out: 10 µM (% DMSO), alamarBlue viability of expanded OPCs, compound at 10 µM, sheet All Tox data
[16] = Rattus norvegicus, test compound at 2 uM, NCC library screen, sheet "All OLga data", relative to quetiapine, read-out: 2 uM (% Quet)
[17] = Rattus norvegicus, test compound at 10 uM, NCC library screen, sheet "All OLga data", relative to quetiapine, read-out: 10 uM (% Quet)
[18] = Rattus norvegicus, test compound at 10 uM, MBP expression relative to quetiapine, NCC library screen, sheet "All OLga data", read-out: 10 uM (% Quet)

Structure (SMILES): Clc1cccc(Cl)c1N=C1NCCN1 [Clonidine hydrochloride]
- activation at 2 µM [1, 2]: -12.5%
- activation at 10 µM [1, 3]: -14.3%
- viability at 0.1 µM (expanded OPCs; [4]): 91.9%
- viability at 1 µM (expanded OPCs; [5]): 84.3%
- viability at 10 µM (expanded OPCs; [6]): 77.2%

Structure (SMILES): COC(=O)[C@H](c1ccccc1Cl)N1CCc2sccc2C1 [Clopidogrel]
- activation at 0.4 µM [1, 7]: -4%
- activation at 2 µM [1, 8]: -15%
- 0.1 µM (% DMSO) (expanded OPCs; [9]): 103.8 % DMSO
- 1 µM (% DMSO) (expanded OPCs; [10]): 94.8 % DMSO
- 10 µM (% DMSO) (expanded OPCs; [11]): 75.7 % DMSO

Structure (SMILES): Clc1ccccc1C(c1ccccc1)(c1ccccc1)n1ccnc1 [Clotrimazole]
- activation at 0.4 µM [1, 12]: 43.9%
- activation at 2 µM [1, 2]: 171%
- viability at 0.1 µM (expanded OPCs; [13]): 82.3%
- viability at 1 µM (expanded OPCs; [14]): 125%
- viability at 10 µM (expanded OPCs; [15]): 54.9%

Structure (SMILES): CN1CCN(C2=Nc3cc(Cl)ccc3Nc3ccccc32)CC1 [Clozapine]
- activation at 0.4 µM [1, 7]: -5.6%
- activation at 2 µM [1, 8]: -39.3%
- 0.1 µM (% DMSO) (expanded OPCs; [9]): 78.7 % DMSO
- 1 µM (% DMSO) (expanded OPCs; [10]): 61.3 % DMSO
- 10 µM (% DMSO) (expanded OPCs; [11]): 24.6 % DMSO

Structure (SMILES): C[C@]12C[C@H](O)[C@H]3[C@@H](CCC4=CC(=O)CC[C@@]43C)[C@@H]1CC[C@@H]2C(=O)CO [Corticosterone]
- activation at 2 µM [1, 16]: 20.1%
- activation at 10 µM [1, 17]: 17.1%
- viability at 0.1 µM (expanded OPCs; [4]): 105%
- viability at 1 µM (expanded OPCs; [5]): 108%
- viability at 10 µM (expanded OPCs; [6]): 102%

Structure (SMILES): C[C@]12CCC(=O)C=C1CC[C@@H]1[C@@H]2[C@@H](O)C[C@@]2(C)[C@H]1CC[C@]2(O)C(=O)COC(=O)CCC(=O)O [Cortisol succinate]
- 2 uM (% Quet) ([1]; test compound at 2 uM, NCC library screen, sheet "All OLga data", relative to quetiapine): 3.6 % Quet
- 10 uM (% Quet) ([1]; test compound at 10 uM, NCC library screen, sheet "All OLga data", relative to quetiapine): 21.7 % Quet
- 0.1 µM (% DMSO) (expanded OPCs; alamarBlue viability, NCC library compound at 0.1 µM, sheet "All Tox data"): 123.4 % DMSO
- 1 µM (% DMSO) (expanded OPCs; alamarBlue viability, NCC library compound at 1 µM, sheet "All Tox data"): 127.0 % DMSO
- 10 µM (% DMSO) (expanded OPCs; alamarBlue viability, NCC library compound at 10 µM, sheet "All Tox data"): 132.7 % DMSO

Structure (SMILES): CC(=O)OCC(=O)[C@@]1(O)CC[C@H]2[C@@H]3CCC4=CC(=O)CC[C@]4(C)[C@H]3C(=O)C[C@@]21C [Cortisone acetate]
- activation at 2 µM [1, 8]: 8.6%
- activation at 10 µM [1, 18]: 4.1%
- 0.1 µM (% DMSO) (expanded OPCs; [9]): 89.9 % DMSO
- 1 µM (% DMSO) (expanded OPCs; [10]): 98.1 % DMSO
- 10 µM (% DMSO) (expanded OPCs; [11]): 86.2 % DMSO

Structure (SMILES): C[C@]12CCC(=O)C=C1CC[C@@H]1[C@@H]2CC[C@@]2(C)[C@H]1CC[C@]2(O)C(=O)CO [Cortodoxone]
- activation at 2 µM [1, 16]: 2.2%
- activation at 10 µM [1, 17]: 5.5%
- viability at 0.1 µM (expanded OPCs; [4]): 92.3%
- viability at 1 µM (expanded OPCs; [5]): 99.6%
- viability at 10 µM (expanded OPCs; [6]): 96.1%

Structure (SMILES): CN1C(=O)CC[C@H]1c1cccnc1 [Cotinine]
- activation at 2 µM [1, 2]: -8.8%
- activation at 10 µM [1, 3]: 21.8%
- viability at 0.1 µM (expanded OPCs; [13]): 88.9%
- viability at 1 µM (expanded OPCs; [14]): 92%
- viability at 10 µM (expanded OPCs; [15]): 98.7%

Structure (SMILES): O=C(O)c1cc(=O)c2c(OCC(O)COc3cccc4oc(C(=O)O)cc(=O)c34)cccc2o1 [Cromolyn Sodium]
- activation at 2 µM [1, 8]: -3%
- activation at 10 µM [1, 18]: 3.7%
- 0.1 µM (% DMSO) (expanded OPCs; [9]): 93.1 % DMSO
- 1 µM (% DMSO) (expanded OPCs; [10]): 94.0 % DMSO
- 10 µM (% DMSO) (expanded OPCs; [11]): 85.3 % DMSO

Structure (SMILES): O=P1(N(CCCl)CCCl)NCCCO1 (stereo not drawn) [Cyclophosphamide]
- activation at 2 µM ([1]; Rattus norvegicus, read-out: 2 uM (% Quet)): 16.5%
- activation at 10 µM ([1]; Rattus norvegicus, read-out: 10 uM (% Quet)): 5.1%
- 0.1 µM (% DMSO) (expanded OPCs; rat): 90.6 % DMSO
- 1 µM (% DMSO) (expanded OPCs; rat): 100.6 % DMSO
- 10 µM (% DMSO) (expanded OPCs; rat): 97.0 % DMSO

Structure (SMILES): N[C@@H]1CON=C1O [Cycloserine]
- activation at 2 µM [1, 2]: 4.1%
- activation at 10 µM [1, 3]: 13.9%
- activation at 2 µM [1, 8]: -13.8%
- activation at 10 µM [1, 18]: -23%
- viability at 0.1 µM (expanded OPCs; [13]): 82.2%
- viability at 1 µM (expanded OPCs; [14]): 87%
- viability at 10 µM (expanded OPCs; [15]): 97.4%
- 0.1 µM (% DMSO) (expanded OPCs; [9]): 89.7 % DMSO
- 1 µM (% DMSO) (expanded OPCs; [10]): 97.0 % DMSO
- 10 µM (% DMSO) (expanded OPCs; [11]): 89.5 % DMSO

Structure (SMILES): CN1CCC(=C2c3ccccc3C=Cc3ccccc32)CC1 [Cyproheptadine]
- activation at 0.08 µM ([1]; Rattus norvegicus, test compound at 0.08 uM, NCC library screen, sheet "All OLga data", relative to quetiapine, read-out: 0.08 uM (% Quet)): -0.6%
- activation at 0.4 µM ([1]; Rattus norvegicus, test compound at 0.4 uM, NCC library screen, sheet "All OLga data", relative to quetiapine, read-out: 0.4 uM (% Quet)): 10.3%
- viability at 0.1 µM (expanded OPCs; [4]): 71.2%
- viability at 1 µM (expanded OPCs; [5]): 49.3%
- viability at 10 µM (expanded OPCs; [6]): 25.2%

Structure (SMILES): Nc1ccn([C@@H]2O[C@H](CO)[C@@H](O)[C@@H]2O)c(=O)n1 [Cytarabine]
- activation at 0.4 µM [1, 12]: -18.7%
- activation at 2 µM [1, 2]: 5.8%
- viability at 0.1 µM (expanded OPCs; [13]): 60.2%
- viability at 1 µM (expanded OPCs; [14]): 56.2%
- viability at 10 µM (expanded OPCs; [15]): 43.1%

From paper PMC5011342, “A high throughput drug screening assay to identify compounds that promote oligodendrocyte differentiation using acutely dissociated and purified oligodendrocyte precursor cells” (BMC Research Notes, 2016)
